According to the RepoRT retention time repository:

Assay: HILIC, Waters ACQUITY UPLC BEH Amide, 100 × 2.1 mm, 1.7 µm; A: water + 0.125% formic acid + 10 mM ammonium formate; B: 5% water + 95% acetonitrile + 0.125% formic acid + 10 mM ammonium formate; gradient (min/%B) 0/100 2/100 7.7/70 9.5/40 10.25/30 12.75/100 17/100
Settings: stereoisomer not certain

SMILES | LC retention time
CCN(C(C)=O)c1cccc(-c2ccnc3c(C#N)cnn23)c1 [Zaleplon] | 1.02 min
O=c1c(-c2ccc(O)cc2)coc2cc(O)cc(O)c12 [4,5,7-Trihydroxyisoflavone] | 1.27 min
CC12CCC3c4ccc(O)cc4CCC3C1CC(OC1OC(C(=O)O)C(O)C(O)C1O)C2O (stereo unspecified) [16-Glucuronide-estriol] | 6.49 min
NCC1CCC(C(=O)Oc2ccc(CCC(=O)O)cc2)CC1 (stereo unspecified) [Cetraxate] | 5.29 min
CC(O)C(O)C1=Nc2c(nc(N)[nH]c2=O)NC1 (stereo unspecified) [7,8-Dihydrobiopterin] | 7.18 min
Cn1cc(C2OC(CO)C(O)C2O)c(=O)[nH]c1=O (stereo unspecified) [1-Methylpseudouridine] | 4.99 min
Cn1c(=O)ccn(C2OC(CO)C(O)C2O)c1=O (stereo unspecified) [3-Methyluridine] | 1.12 min
COC1C(CO)OC(n2ccc(N)nc2=O)C1O (stereo unspecified) [3'-O-Methylcytidine] | 5.09 min
NC12CC3CC(CC(C3)C1)C2 [Amantadine] | 4.88 min
CC(N)C(=O)NC(C)C(=O)O (stereo unspecified) [Ala-Ala] | 8.41 min
O=C(O)CCCCCCC(O)CC(=O)O (stereo unspecified) [3-Hydroxysebacic acid] | 2.55 min
COC1C(O)C(CO)OC1n1cc(C)c(N)nc1=O (stereo unspecified) [2'-O-Methyl-5-methylcytidine] | 4.93 min
O=C(O)C(O)c1ccc(O)c(O)c1 (stereo unspecified) [3,4-Dihydroxymandelic acid] | 2.3 min
Cc1cn(C2OC(CO)C(O)C2O)c(=O)nc1N (stereo unspecified) [5-Methylcytidine] | 6.39 min
Nc1ccn(C2OC(CO)C(O)C2O)c(=S)n1 (stereo unspecified) [2-Thiocytidine] | 5.33 min
CC(=O)NCCCCCCNC(C)=O | 1.5 min
CC(C)(O)C1C2OC(=O)C1C1(O)CC3OC34C(=O)OC2C14C (stereo unspecified) [Picrotin] | 1.21 min
CC(C)CCCC(C)C1CCC2C3CC=C4CC(OC(=O)NCCN(C)C)CCC4(C)C3CCC12C (stereo not drawn) [3-beta-Cholest-5-en-3-yl [2-(dimethylamino)ethyl]carbamate] | 2.34 min
CC(C)=CC(=O)NCC(=O)O [3-Methylcrotonylglycine] | 2.95 min
NC(N)=NCCCC(=O)O [4-Guanidinobutyric acid] | 7.72 min
CC(Cc1ccc(C(C)C(=O)O)cc1)C(=O)O (stereo unspecified) [Carboxyibuprofen] | 1.11 min

SMILES | LC retention time
CCCCCC(O)CC (stereo unspecified) [3-Octanol] | 8.47 min
CNCCC(Oc1ccccc1C)c1ccccc1 (stereo unspecified) [Atomoxetine] | 2.42 min
CC1CNC(=O)NC1=O (stereo unspecified) [5,6-Dihydro-5-methyluracil] | 1.57 min
CNCCc1cnc[nH]1 [N-alpha-methylhistamine] | 7.48 min
CC(C)=CCN1CCC2(C)c3cc(O)ccc3CC1C2C (stereo unspecified) [Pentazocine] | 2.65 min
CCC(=O)NCC(=O)O [2-Propanamidoacetic acid] | 5.37 min
CN1CCC23c4c5ccc(O)c4OC2C(=O)CCC3(O)C1C5 (stereo unspecified) [Oxymorphone] | 5.5 min
CC(C)C12OC1C1OC13C1(C)CCC4=C(COC4=O)C1CC1OC13C2O (stereo unspecified) [Triptolide] | 1.02 min
COc1cc(OC)c(C(=O)CCCN2CCCC2)c(OC)c1 [Buflomedil] | 2.34 min
COc1ccc(CCN)cc1OC [Homoveratrylamine] | 4.78 min
CC(=O)OC(CC(=O)[O-])C[N+](C)(C)C (stereo unspecified) [Acetylcarnitine] | 7.19 min
CN1C(=O)CCC1c1ccc[n+]([O-])c1 [(S)-Cotinine N-oxide] | 3.87 min
CC(C)(C#N)c1cc(Cn2cncn2)cc(C(C)(C)C#N)c1 [Anastrozole] | 0.98 min
C[N+](C)(C)CCCC(=O)O [4-Trimethylammoniobutanoic acid] | 7.66 min
NC(CSCC(=O)O)C(=O)O (stereo unspecified) [Carbocysteine] | 9.04 min
CCN(CC)CCOC(=O)C(O)(c1ccccc1)c1ccccc1 [Benactyzine] | 2.16 min
CCCN1CC(CSC)CC2c3cccc4[nH]cc(c34)CC21 (stereo unspecified) [Pergolide] | 2.41 min
CN(C)CCCSc1ccccc1NC(=O)C=Cc1ccccc1 [Cinanserin] | 2.61 min
Nc1nc2c(ncn2C2CC(O)C(COP(=O)(O)O)O2)c(=O)[nH]1 (stereo unspecified) [2'-Deoxyguanosine 5'-monophosphate] | 9.25 min
CC1C(=O)Nc2ccccc21 (stereo unspecified) [3-Methyloxyindole] | 1.07 min

Next, values leading:

LC retention time | SMILES
1.04 min | CCC=CCC1C(=O)CCC1CC(=O)OC (stereo unspecified) [Methyl jasmonate]
9.84 min | NCCCCC(N)C(=O)NCC(=O)O (stereo unspecified) [Lys-Gly]
1.02 min | CC(=O)OCCc1ccccc1 [Phenethylacetate]
4.47 min | CCCCCCCCCCCCCCCC(O)C(N)CO (stereo unspecified) [Dihydrosphingosine]
9.38 min | CC(C)C(NC(=O)C(N)CCCCN)C(=O)O (stereo unspecified) [Lys-Val]
7.67 min | CC(=O)NC(CO)C(=O)O (stereo unspecified) [N-Acetylserine]
4.32 min | COc1cc(-c2oc3cc(O)cc(O)c3c(=O)c2OC2OC(CO)C(O)C(O)C2O)cc(OC)c1O (stereo unspecified) [Syringetin-3-O-glucoside]
2.85 min | CC(C)(C)NC(=O)C1CC2CCCCC2CN1CC(O)C(Cc1ccccc1)NC(=O)C(CC(N)=O)NC(=O)c1ccc2ccccc2n1 (stereo unspecified) [Saquinavir]
8.74 min | C=Cc1ccccc1 [Styrene]
1.01 min | CC(=O)C1(O)CCC2C3CC(C)C4=CC(=O)CCC4(C)C3CCC21C (stereo unspecified) [Medroxyprogesterone]
7.66 min | CC(C)C(NC(=O)C(N)CCC(=O)O)C(=O)NC(Cc1ccccc1)C(=O)O (stereo not drawn) [Glu-Val-Phe]
1.29 min | CN(C)C=O [N,N-Dimethylformamide]
9.05 min | C=C(OP(=O)(O)O)C(=O)O [Phosphoenolpyruvic acid]
2.84 min | CCCCCN=C(N)NN=Cc1c[nH]c2ccc(OC)cc12 [Tegaserod]
6.02 min | COc1cc(-c2oc3cc(O)cc(O)c3c(=O)c2OC2OC(COC3OC(C)C(O)C(O)C3O)C(O)C(O)C2O)ccc1O (stereo unspecified) [Isorhamnetin-3-O-rutinoside]
2.57 min | Cc1cn(C2CC(O)C(CO)O2)c(=O)[nH]c1=O (stereo unspecified) [Thymidine]
1.98 min | Nc1nnc(-c2cccc(Cl)c2Cl)c(N)n1 [Lamotrigine]
2.33 min | CN1CCC(=C2c3ccccc3CCc3sccc32)CC1 [Pizotifen]
3.45 min | CCOC(=O)c1ccc(OC(=O)CCCCCN=C(N)N)cc1 [Gabexate]
9.72 min | O=P(O)(O)OCC1OC(OC2OC(CO)C(O)C(O)C2O)C(O)C(O)C1O (stereo unspecified) [Trehalose-6-phosphate]
2.87 min | CC1CN(CCCn2c3ccccc3c3ccccc32)CC(C)N1 (stereo unspecified) [Rimcazole]
2.65 min | CC(Oc1c(Cl)cccc1Cl)C1=NCCN1 (stereo unspecified) [Lofexidine]
0.99 min | CC(=O)CC(c1ccccc1)c1c(O)c2ccccc2oc1=O (stereo unspecified) [Warfarin]
3.48 min | OCC1OC(n2cnc3c(NC4CCCC4O)ncnc32)C(O)C1O (stereo unspecified) [N-2-Hydroxycyclopentyladenosine]
8.1 min | CC(C)CC(NC(=O)CCC(N)C(=O)O)C(=O)O (stereo unspecified) [gamma-Glutamylleucine]

LC retention time | SMILES
1.38 min | O=C(O)C=Cc1ccc(O)cc1 [p-Coumaric acid]
3.17 min | CC(C(O)c1ccc(O)cc1)N1CCC(Cc2ccccc2)CC1 (stereo unspecified) [Ifenprodil]
7.3 min | O=c1[nH]c(=O)c2ncn(C3OC(CO)C(O)C3O)c2[nH]1 (stereo unspecified) [Xanthosine]
5.59 min | NC(N)=Nc1nc(CSCCC(N)=NS(N)(=O)=O)cs1 [Famotidine]
9.73 min | O=C(O)CP(=O)(O)O [Phosphonoacetic acid]
8.6 min | O=C(O)C1CC(O)CN1C(=O)C1CCCN1 (stereo unspecified) [Proline-hydroxyproline]
4.41 min | CN(C)CCC=C1c2ccccc2COc2ccc(CC(=O)O)cc21 [Olopatadine]
1.22 min | O=c1[nH]c(=O)n(C2CCCO2)cc1F (stereo unspecified) [Tegafur]
6.03 min | NC(=O)CCC(NC(=O)Cc1ccccc1)C(=O)O (stereo unspecified) [Phenylacetylglutamine]
6.99 min | CNC(C(=O)O)C(C)C (stereo unspecified) [N-Methylvaline]
9.1 min | CN(C)C(CCCN=C(N)N)C(=O)O (stereo unspecified) [N,N-Dimethylarginine]
1.25 min | CC12CCC(=O)C=C1CCC1C2C(O)CC2(C)C(C(=O)CO)CCC12 (stereo unspecified) [Corticosterone]
7.92 min | Nc1nc2c(c(=O)[nH]1)N(C=O)C(CNc1ccc(C(=O)NC(CCC(=O)O)C(=O)O)cc1)CN2 (stereo unspecified) [Folinic acid]
4.65 min | CN1CCN(c2c(F)cc3c(=O)c(C(=O)O)cn4c3c2SCC4)CC1 [Rufloxacin]
9.55 min | NC(=O)CCC(NC(=O)CCC(N)C(=O)O)C(=O)O (stereo unspecified) [gamma-Glutamylglutamine]
9.54 min | NCCCCC(N)C(=O)O (stereo unspecified) [Lysine]
4.12 min | CN1C2CCCC1CC(NC(=O)c1nn(C)c3ccccc13)C2 (stereo unspecified) [Granisetron]
3.23 min | CCN(CC)C(=O)C1(c2ccccc2)CC1CN (stereo unspecified) [Milnacipran]
1.25 min | NC(=O)CCCCC1CCSS1 (stereo unspecified) [Lipoamide]
2.85 min | Clc1cccc(Cl)c1NC1=NCCN1 [Clonidine]
8.73 min | NC(=O)NCCCC[C@H](N)C(=O)O [L-Homocitrulline]
1.3 min | COc1cc(C2c3cc4c(cc3C(OC3OC5COC(C)OC5C(O)C3O)C3COC(=O)C23)OCO4)cc(OC)c1O (stereo unspecified) [Etoposide]
4.99 min | O=c1[nH]cnc2nc[nH]c12 [Hypoxanthine]
8.1 min | Cc1ncc(CO)c(CN)c1O [Pyridoxamine]
6.71 min | Nc1nc2c(ncn2CCC(CO)CO)c(=O)[nH]1 [Penciclovir]
